We go through 2 substances from patent US10913788B2, “Pharmaceutical composition for preventing or treating dry eyes” (EYEBIO KOREA, priority 2015, dated 2021).

Common to all, as to assay type: in vivo
In one experiment the test system is NOD.B10.H2^b mice. Briefly: Tear production measured with phenol red-impregnated cotton threads in dry eye mice after removal of desiccation stress. The following applies: for increased tear production compared to the control group (PBS group): 10 mg/ml in PBS, 5 μL instilled into eyeballs 5 times per day, up to 10 days after removal of desiccation stress, p<0.05; for tear production / tear volume, result in words: eye instillation 5 times per day for 10 days after removal of desiccation stress, 0.1% HA. On the procedure: (§1) NOD.B10.H2^b mice were purchased from Jackson Laboratory (Bar Harbor, Me., USA). Experiments on animals were performed according to the guidelines for animal experiments of Inje University College of Medicine (No.; 2014-029) and the ARVO statement for the use of animals in ophthalmic and vision research. 12-to-16-week-old NOD.B10.H2^b mice underwent desiccation stress as being exposed to an air draft from a fan at an ambient humidity of about 40% to 50% for 18 hours per day, and then, were subjected to subcutaneous injection of 0.5 mg/0.2 mL of muscarinic receptor blockers. Also, the mice were injected with scopolamine hydrobromide (Sigma-Aldrich, St. Louis, Mo.) alternatively on hindquarters 4 times per day (9 AM, 12 PM, 3 PM, and 6 PM) for 10 days. During these experiments, behaviors and food and water intakes of the mice were not restricted. 10 days later, the mice were euthanized.
(§2) 10 days after the mice underwent desiccation stress, the scopolamine injection was halted, and then, the mice newly had environments with normal humidity and temperature. After the desiccation stress was removed, the mice were divided into a peptide I group or a peptide II group, wherein 10 mg/ml of peptide I or 10 mg/ml of peptide II was dissolved in PBS and 5 μL of PBS was instilled into eyeballs of the mice 5 times per day for 10 days. In addition, 5 μL of PBS or 5 μL of 0.1% HA were instilled into eyeballs of the mice in a control group, i.e., a PBS group or a hyaluni (HA) group, 5 times a day for 10 days. In each group, both eyes of each of 5 mice were used to conduct the experiments in a repetitive manner.
Extents of tear production were measured with phenol red-impregnated cotton threads (Zone-Quick; Oasis, Glendora, Calif.), as previously described (Villareal A L, Farley W, Pflugfelder S C. Effect of topical ophthalmic epinastine and olopatadine on tear volume in mice. Eye Contact Lens. 2006; 32(6):272-276). The threads were held medical tweezers and placed in the lateral canthus for 20 seconds. The tear volumes were expressed as millimeter (mm) of wet thread that had been turned red by the tears, as measured under a microscope (SZX7; Olympus corp, Tokyo, Japan).
The tear fluid uptakes measured in millimeters were compared to a standard curve that was prepared from cotton threads with known uptake volumes of a stock basic solution ([…] of 0.9% saline and 5 mL of 5 N NaOH) over 20 seconds that were within the range that would be expected for mouse tears.

A further experiment relates to corneal epithelial cells. Briefly: Detachment of corneal epithelial cells (H&E stain) in dry eye mice. The settings on record: instillation for 10 days after removal of desiccation stress. On the procedure:
as §1
(§3) 10 days after the mice underwent desiccation stress, the scopolamine injection was halted, and then, the mice newly had environments with normal humidity and temperature. After the desiccation stress was removed, the mice were divided into a peptide I group or a peptide II group, wherein 10 mg/ml of peptide I or 10 mg/ml of peptide II was dissolved in PBS and 5 μL of PBS was instilled into eyeballs of the mice 5 times per day for 10 days. […]

The subject of experiment [1] is conjunctival goblet cells. Briefly: Distribution of conjunctival goblet cells (PAS stain) in dry eye mice. The settings on record: instillation after removal of desiccation stress, p<0.05; for conjunctival goblet cells: desiccation stress 7.43±1.52. On the procedure:
as §1, §2
The eyes and adnexa of the mice in the control groups (i.e., the PBS group and the HA group) and the experimental groups (i.e., the peptide I group and the peptide II group) were surgically excised, fixed in 10% formalin, and embedded in paraffin and an OCT compound.
6 μm sections of the tissue samples were stained with haematoxylin and eosin (H&E) and periodic acid-Schiff (PAS) reagent.
5 animals in each group were subjected to the staining as described above, and then, were examined and photographed with a virtual microscope (NanoZoomer 2.0 RS, Hamamatsu, Japan).
The distribution of the conjunctival goblet cells in the dry eye mice were observed following peptide I, peptide II, and HA instillation.

The subject of experiment [2] is TNF-α, ICAM-1, VCAM-1, MMP-2, and MMP-9. The experiment can be described thus: Immunohistochemical analysis of inflammatory markers in conjunctiva of dry eye mice. The following applies: instillation for 10 days after removal of desiccation stress. On the procedure:
as §1, §3

“GDRGD [peptide I, collagen type I α1 based peptide GDRGD]”: in the experiment on NOD.B10.H2^b mice, the “increased tear production compared to the control group (PBS group)” value was “about 2.52 fold” and the “tear production / tear volume, result in words” value is given as “recovering the tear volumes up to normal tear volumes”. In the experiment on corneal epithelial cells (DS 10D 2.29±0.61, PBS 1.43±0.34), the “number of detached corneal epithelial cells” value is reported as “about 0.19±0.14 /0.1 mm^2”. In addition, in experiment [1], the conjunctival goblet cells is 13.3 ± 2.41 cells/0.1 mm^2 and the “increase of conjunctival goblet cells that were decreased by desiccation stress” value is listed as “about 1.8 fold”. In experiment [2], the “expression of inflammatory markers (TNF-α, ICAM-1, VCAM-1, MMP-2, MMP-9) in the conjunctiva, result in words” value is on record as “significantly decreased”.
With “GQDGLAGPK [peptide II, collagen type II α1 based peptide …]”, in the experiment with NOD.B10.H2^b mice, the “increased tear production compared to the control group (PBS group)” value was “about 2.52 fold” and the “tear production / tear volume, result in words” value is “recovering the tear volumes up to normal tear volumes”. Besides, the “decrease of detachment of corneal epithelial cells compared to the control groups” value in the experiment with corneal epithelial cells is reported as “about 4 fold”. Further, in experiment [1], the conjunctival goblet cells is 12.1 ± 1.11 cells/0.1 mm^2 and the “increase of conjunctival goblet cells that were decreased by desiccation stress” value was “about 1.63 fold”. Further, the “expression of inflammatory markers (TNF-α, ICAM-1, VCAM-1, MMP-2, MMP-9) in the conjunctiva, result in words” value in experiment [2] is “significantly decreased”.
